Experimental data taken from US9657009B2, “Heteroaryl substituted pyridyl compounds useful as kinase modulators” (BRISTOL-MYERS SQUIBB COMPANY, priority 2012, dated 2017).

target: IRAK4 (Homo sapiens (Human), UniProt Q9NWZ3); experiment: IRAK4 Inhibition Assay; type: biochemical; details: ATP 500 μM; IRAK4 0.6 nM; 60 min at room temperature; read-out: IRAK4 IC50
Protocol: IRAK4 Inhibition Assay The assays were performed in U-bottom 384-well plates. […] The reaction was initiated by the combination of IRAK4 with substrates and test compounds. The reaction mixture was incubated at room temperature for 60 min. and terminated by adding 45 μL of 35 mM EDTA to each sample.

IRAK4, sequence (Q9NWZ3 whole entry, species assumed): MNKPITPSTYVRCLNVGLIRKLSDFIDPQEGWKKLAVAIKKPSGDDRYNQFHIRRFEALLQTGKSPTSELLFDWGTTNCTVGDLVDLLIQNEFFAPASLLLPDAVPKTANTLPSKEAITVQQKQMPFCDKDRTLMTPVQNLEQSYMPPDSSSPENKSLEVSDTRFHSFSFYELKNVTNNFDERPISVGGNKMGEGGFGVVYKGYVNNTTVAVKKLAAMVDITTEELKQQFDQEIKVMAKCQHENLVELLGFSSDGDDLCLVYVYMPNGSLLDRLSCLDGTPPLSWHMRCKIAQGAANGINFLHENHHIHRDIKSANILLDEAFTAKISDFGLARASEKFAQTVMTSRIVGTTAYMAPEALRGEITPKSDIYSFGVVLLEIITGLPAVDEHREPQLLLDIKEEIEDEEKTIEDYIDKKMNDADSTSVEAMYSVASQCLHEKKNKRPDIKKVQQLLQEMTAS

IC50	Compound
1.9 nM	CC(C)(O)[C@H](F)CNC(=O)c1cnc(Nc2ncc(C#N)cc2F)cc1NC1CC1 [Example 47]
14.5 nM	CC(C)(O)[C@H](F)CNC(=O)c1cnc(Nc2ncc(F)cc2F)cc1NC1CC1 [Example 89]
13.3 nM	CC(C)(O)[C@H](F)CNC(=O)c1cnc(Nc2ccncn2)cc1NC1CC1 [Example 21, 4-(cyclopropylamino)-N-((2R)-2-fluoro-3-hydroxy-3-methylbutyl)-6-(4-pyrimidinylamino)nicotinamide]
1.4 nM	CC(C)(O)c1cnc(Nc2cc(Nc3ncc(C#N)cc3Cl)ncc2C(=O)NC[C@@H](F)C(C)(C)O)s1 [Example 75]
6.6 nM	CC(C)Nc1cc(Nc2ncc(C#N)cc2F)ncc1C(=O)NCCc1ccc(S(N)(=O)=O)cc1 [Example 121]
5.5 nM	CC(C)Nc1cc(Nc2ccc(C#N)cn2)ncc1C(=O)N[C@H]1CC[C@H](C(=O)NC2CC2)CC1 [Example 6, 6-((5-cyanopyridin-2-yl)amino)-N-((1R,4R)-4-(cyclopropylcarbamoyl)cyclohexyl)-4-(isopropylamino)nicotinamide]
4.6 nM	CCNc1cc(Nc2ncc(C#N)cc2Cl)ncc1C(=O)NC[C@@H](F)C(C)(C)O [Example 51]
8.6 nM	CC(C)(O)[C@H](F)CNC(=O)c1cnc(Nc2ncc(C#N)cc2Cl)cc1NC1CCCCC1O (some centres unmarked) [Example 104]
13 nM	CC(C)Nc1cc(Nc2ncc(C#N)cc2F)ncc1C(=O)NC1CCC(O)(c2nccs2)CC1 (centres unmarked) [Example 167]
3.8 nM	Cc1nc(Nc2cc(NC(C)C)c(C(=O)NC[C@@H](F)C(C)(C)O)cn2)ccc1C#N [Example 63]
6 nM	CC(C)Nc1cc(Nc2ccc(C#N)c(N3CCC(O)C3)n2)ncc1C(=O)NC[C@@H](F)C(C)(C)O (stereo in doubt) [Example 27, 6-((5-cyano-6-((3S)-3-hydroxy-1-pyrrolidinyl)-2-pyridinyl)amino)-N-((2R)-2-fluoro-3-hydroxy-3-methylbutyl)-4-(isopropylamino)nicotinamide]
13 nM	CC(C)Nc1cc(Nc2ncncc2N)ncc1C(=O)NC[C@@H](F)C(C)(C)O [Example 132]
3.1 nM	CC(=O)N[C@H](C)CCNC(=O)c1cnc(Nc2ncc(C#N)cc2F)cc1NC(C)C [Example 64]
1.9 nM	CC(C)Nc1cc(Nc2ncc(C#N)cc2Cl)ncc1C(=O)NC[C@@H](F)C(C)(C)O [Example 12, 6-((3-chloro-5-cyano-2-pyridinyl)amino)-N-((2R)-2-fluoro-3-hydroxy-3-methylbutyl)-4-(isopropylamino)nicotinamide]
15.5 nM	CS(=O)(=O)[C@H]1CC[C@H](NC(=O)c2cnc(Nc3ncc(C#N)cc3F)cc2Nc2cccc(C(N)=O)c2)CC1 [Example 161]
3.3 nM	CC(C)Nc1cc(Nc2ncc(C#N)c(N)n2)ncc1C(=O)NC[C@@H](F)C(C)(C)O [Example 136]
2.8 nM	CC(C)Nc1cc(Nc2ncc(C#N)cc2F)ncc1C(=O)N[C@H]1CC[C@H](C(=O)NC(C)C)CC1 [Example 116]
30.7 nM	CC(=O)N1CCC(NC(=O)c2cnc(Nc3ccc(C#N)cn3)cc2NC(C)C)CC1 [Example 8, N-(1-acetyl-4-piperidinyl)-6-((5-cyano-2-pyridinyl)amino)-4-(isopropylamino)nicotinamide]
9.9 nM	CC(C)Nc1cc(Nc2ccnc(NC3CCCOC3)n2)ncc1C(=O)NC[C@@H](F)C(C)(C)O (stereo partly drawn) [Example 25, N-((2R)-2-fluoro-3-hydroxy-3-methylbutyl)-4-(isopropylamino)-6-((2-(tetrahydro-2H-pyran-3-ylamino)-4-pyrimidinyl)amino)nicotinamide]
5.2 nM	CC(=O)N[C@H]1CC[C@H](NC(=O)c2cnc(Nc3ncc(C#N)cc3Cl)cc2NC(C)C)CC1 [Example 15, N-((1r,4r)-4-acetamidocyclohexyl)-6-((3-chloro-5-cyanopyridin-2-yl)amino)-4-(isopropylamino)nicotinamide]
3.8 nM	CCC(O)(CC)[C@H](F)CNC(=O)c1cnc(Nc2ncc(C#N)cn2)cc1NC(C)C [Example 117]
6 nM	CC(C)(O)[C@H](F)CNC(=O)c1cnc(Nc2ncc(C#N)cc2F)cc1Nc1cccc(C(N)=O)c1 [Example 135]
5.3 nM	CC(C)Nc1cc(Nc2ncc(C#N)cn2)ncc1C(=O)NC[C@@H](F)C(C)(C)O [Example 22, 6-((5-cyano-2-pyrimidinyl)amino)-N-((2R)-2-fluoro-3-hydroxy-3-methylbutyl)-4-(isopropylamino)nicotinamide]
1.5 nM	CC(=O)N[C@H](C)CCNC(=O)c1cnc(Nc2ncc(C#N)cc2Cl)cc1NC(C)C [Example 28, (R)—N-(3-acetamidobutyl)-6-((3-chloro-5-cyanopyridin-2-yl)amino)-4-(isopropylamino)nicotinamide]
8.7 nM	CC(C)(O)[C@H](F)CNC(=O)c1cnc(Nc2ncc(F)cc2F)cc1NC1CCOCC1F (some centres unmarked) [Example 108]
11 nM	CC(C)Nc1cc(Nc2ccnc(NC3CC3)n2)ncc1C(=O)NC[C@@H](F)C(C)(C)O [Example 24, 6-((2-(cyclopropylamino)-4-pyrimidinyl)amino)-N-((2R)-2-fluoro-3-hydroxy-3-methylbutyl)-4-(isopropylamino)nicotinamide]
7.3 nM	CC(C)CCNc1cc(Nc2ncc(C#N)cc2Cl)ncc1C(=O)NC[C@@H](F)C(C)(C)O [Example 140]
3.1 nM	CC(C)(O)[C@H](F)CNC(=O)c1cnc(Nc2ncc(C#N)cc2F)cc1NC1CCOCC1 [Example 49]

IC50	Compound
2.9 nM	CC(C)(O)[C@H](F)CNC(=O)c1cnc(Nc2ncc(C#N)cc2Cl)cc1NCC(F)(F)F [Example 65]
3.8 nM	CCNc1cc(Nc2ncc(C#N)cc2F)ncc1C(=O)NC[C@@H](F)C(C)(C)O [Example 66]
5.2 nM	CC(C)(O)[C@H](F)CNC(=O)c1cnc(Nc2ncc(C#N)cc2F)cc1Nc1cccc(NS(C)(=O)=O)c1 [Example 134]
5.6 nM	C[C@@H](CO)Nc1cc(Nc2ncc(C#N)cn2)ncc1C(=O)NC[C@@H](F)C(C)(C)O [Example 101]
3.4 nM	CNC(=O)[C@H]1CC[C@H](NC(=O)c2cnc(Nc3ncc(C#N)cc3F)cc2NC(C)C)CC1 [Example 18, 6-((5-cyano-3-fluoropyridin-2-yl)amino)-4-(isopropylamino)-N-((1r,4r)-4-(methylcarbamoyl)cyclohexyl)nicotinamide]
7.1 nM	CC(C)(O)[C@H](F)CNC(=O)c1cnc(Nc2ccc(Cl)cn2)cc1NC1CC1 [Example 81]
4.5 nM	CC(C)(O)[C@H](F)CNC(=O)c1cnc(Nc2ncc(C(N)=O)cc2Cl)cc1NC1CCC(F)C1 (some centres unmarked) [Example 38]
11.3 nM	COC(=O)N[C@H]1CC[C@H](NC(=O)c2cnc(Nc3ncc(C#N)cc3F)cc2NC(C)C)CC1 [Example 165]
4.2 nM	CCC(C)Nc1cc(Nc2ncc(C#N)cn2)ncc1C(=O)NC[C@@H](F)C(C)(C)O (some centres unmarked) [Example 99]
11 nM	COc1cnc(Nc2cc(NC3CCC3)c(C(=O)NC[C@@H](F)C(C)(C)O)cn2)nc1 [Example 112]
15.3 nM	CC(C)Nc1cc(Nc2ncc(C#N)cc2F)ncc1C(=O)NCCCOC(C)(C)C [Example 127]
9.6 nM	CC(C)Nc1cc(Nc2ncc(C#N)cc2F)ncc1C(=O)NC[C@@H](F)C(C)(C)O [Example 17, 6-((5-cyano-3-fluoro-2-pyridinyl)amino)-N-((2R)-2-fluoro-3-hydroxy-3-methylbutyl)-4-(isopropylamino)nicotinamide]
10.4 nM	CC(C)Nc1cc(Nc2ccc(C#N)cn2)ncc1C(=O)N[C@H]1CC[C@H](C(=O)N[C@H]2C[C@H]2F)CC1 [Example 7, 6-((5-cyano-2-pyridinyl)amino)-N-(trans-4-(((1S,2R)-2-fluorocyclopropyl)carbamoyl)cyclohexyl)-4-(isopropylamino)nicotinamide]
10.2 nM	CC(Nc1cc(Nc2ncc(C#N)cn2)ncc1C(=O)NC[C@@H](F)C(C)(C)O)C1CC1 (some centres unmarked) [Example 163]
3 nM	CC(C)(O)[C@H](F)CNC(=O)c1cnc(Nc2ncc(C#N)cc2Cl)cc1NC1CCOCC1F (some centres unmarked) [Example 79]
4.6 nM	CC(C)(O)[C@H](F)CNC(=O)c1cnc(Nc2ncc(C#N)cc2F)cc1Nc1cccc(S(N)(=O)=O)c1 [Example 128]
9.1 nM	CC(C)(O)[C@H](F)CNC(=O)c1cnc(Nc2ncc(C#N)cn2)cc1N[C@H]1CCC[C@H]1F [Example 107]
1.4 nM	CC(C)(O)[C@H](F)CNC(=O)c1cnc(Nc2ncc(C#N)cc2Cl)cc1N[C@H]1CC[C@](C)(O)CC1 [Example 150]
3.5 nM	CCCNc1cc(Nc2ncc(C#N)cc2Cl)ncc1C(=O)NC[C@@H](F)C(C)(C)O [Example 138]
3 nM	CS(=O)(=O)[C@H]1CC[C@H](NC(=O)c2cnc(Nc3ncc(C#N)cc3Cl)cc2NC2CCOCC2)CC1 [Example 149]
14.8 nM	CC(C)(O)[C@H](F)CNC(=O)c1cnc(Nc2ccc(C#N)cn2)cc1NCC(F)(F)F [Example 3, 6-((5-cyano-2-pyridinyl)amino)-N-((2R)-2-fluoro-3-hydroxy-3-methylbutyl)-4-((2,2,2-trifluoroethyl)amino)nicotinamide]
7 nM	CC(C)Nc1cc(Nc2ncc(F)cc2F)ncc1C(=O)NC[C@@H](F)C(C)(C)O [Example 80]
5.3 nM	CC(C)(F)CNc1cc(Nc2ncc(C#N)cc2Cl)ncc1C(=O)NC1CCC(C(C)(C)O)CC1 (centres unmarked) [Example 103]
8.5 nM	Cn1nnnc1-c1cccc(Nc2cc(Nc3ncc(C#N)cc3Cl)ncc2C(=O)NC[C@@H](F)C(C)(C)O)c1 [Example 146]
3.5 nM	CC(C)(O)[C@H](F)CNC(=O)c1cnc(Nc2ncc(C#N)cc2Cl)cc1NC12CC(C1)C2 [Example 90]
2.3 nM	CC(C)(O)[C@H](F)CNC(=O)c1cnc(Nc2ncc(C#N)cc2F)cc1NC1CCC(F)C1 (some centres unmarked) [Example 114]
4.3 nM	C[C@@H](CO)Nc1cc(Nc2ncc(C#N)cc2F)ncc1C(=O)NC[C@@H](F)C(C)(C)O [Example 91]

Compound	IC50
CC(C)(O)[C@H](F)CNC(=O)c1cnc(Nc2ncc(C#N)cc2F)cc1NC1CCCOC1 (some centres unmarked) [Example 98]	7.5 nM
